We go through seven compounds from EP1000039B1 (Wyeth Holdings Corporation, priority 1997, dated 1999).

Assay [1] has as its target T1, His-tagged cytoplasmic domain of EGFR (Homo sapiens, UniProt P00533).
T1 construct: containing the EGFR cDNA encoding amino acids 645 - 1186 preceded by Met-Ala-(His)6; Met-Ala-(His)6 (N); made in house; host or cells: Sf9 insect cells, recombinant baculovirus vHcEGFR52
The experiment in a line: Inhibition of Epidermal Growth Factor Receptor Kinase (EGF-R) using recombinant enzyme, RR-SRC peptide phosphorylation. The assay is classed as biochemical. Here is the method: The enzyme used in this assay is the His-tagged cytoplasmic domain of EGFR. […] Sf9 cells in 100 mm plates were infected at an moi of 10 pfu/cell and cells were harvested 48 h post infection. A cytoplasmic extract was prepared using 1% Triton X-100 and applied to Ni-NTA column. After washing the column with 20 mM imidazole, HcEGFR was eluted with 250 mM imidazole (in 50 mM Na2HPO4, pH 8.0, 300 mM NaCl). Fractions collected were dialyzed against 10 mM HEPES, pH 7.0, 50 mM NaCl, 10% glycerol, 1ug/mL antipain and leupeptin and 0. 1 mM Pefabloc SC. The protein was frozen in dry ice/methanol and stored -70°C.
For the enzyme reaction, 10 uL of each inhibitor (at various concentrations) were added to each well of a 96-well plate. To this was added 3 uL of enzyme (1: 10 dilution in 10mM HEPES, pH 7.4 for final conc. of 1:120). This was allowed to sit for 10 min on ice and was followed by the addition of 5 ul peptide (80 uM final conc.), 10ul of 4X Buffer (Table A), 0.25 uL ^33P-ATP and 12 uL H2O. The reaction was allowed to run for 90 min at room temperature and was followed by spotting the entire volume on to precut P81 filter papers. The filter discs were washed 2X with 0.5% phosphoric acid and radioactivity was measured using a liquid scintillation counter.

Assay [2] concerns A2780DDP. The assay is described as follows: Inhibition of Cancer Cell Growth (Sulforhodamine B). The assay is classed as cell-based, Human. Particulars: Homo sapiens, 48 hours exposure, read-out: Inhibition of Cancer Cell Growth as Measured by Cell Number (IC50) A2780DDP. On the procedure: (§1) After 48 hours exposure to test compounds, cells were fixed with trichloroacetic acid, and stained with Sulforhodamine B. After washing with trichloroacetic acid, bound dye was solubilized in 10 mM Tris base and optical density was determined using plate reader. Under conditions of the assay the optical density is proportional to the number of cells in the well. […] The test procedure is described in details by Philip Skehan et. al. J.Natl. Canc. […]

Assay [3] deals with A2780S. Described as above. The assay is classed as cell-based, Human. Particulars: Homo sapiens, 48 hours exposure, read-out: Inhibition of Cancer Cell Growth as Measured by Cell Number (IC50) A2780S. On the procedure: as §1
The subject of assay [4] is A431. Described as above. The assay is classed as cell-based, Human. To be noted: Homo sapiens, A-431, 48 hours exposure, read-out: Inhibition of Cancer Cell Growth as Measured by Cell Number (IC50) A431. On the procedure: as §1
For assay [5], the system named is LOX. The description is as above. To be noted: Homo sapiens, 48 hours exposure, read-out: Inhibition of Cancer Cell Growth as Measured by Cell Number (IC50) LOX. The assay is classed as cell-based, Human. Here is the method: as §1
In assay [6] the test system is MB435. The assay is described as above. Particulars: Homo sapiens, 48 hours exposure, read-out: Inhibition of Cancer Cell Growth as Measured by Cell Number (IC50) MB435. The assay is classed as cell-based, Human. On the procedure: as §1
In assay [7] the test system is MCF7. The assay is described as above. The assay is classed as cell-based, Human. Particulars: Homo sapiens, 48 hours exposure, read-out: Inhibition of Cancer Cell Growth as Measured by Cell Number (IC50) MCF7. Here is the method: as §1
The test system of assay [8] is SKBR3. The assay is described as above. The class given is cell-based, Human. Particulars: Homo sapiens, SK-BR-3, 48 hours exposure, read-out: Inhibition of Cancer Cell Growth as Measured by Cell Number (IC50) SKBR3. Here is the method: as §1
Assay [9] concerns SW620. Described as above. The class given is cell-based, Human. Particulars: Homo sapiens, SW-620, 48 hours exposure, read-out: Inhibition of Cancer Cell Growth as Measured by Cell Number (IC50) SW620. Here is the method: as §1
Setting [10] is: recombinant enzyme, average of the number of tests, read-out: IC50.

Values after ≈ are worked out from the molar mass of the structure shown. Read-outs that look alike come from different tables or passages of the source.

T1 sequence (P00533 669-1210): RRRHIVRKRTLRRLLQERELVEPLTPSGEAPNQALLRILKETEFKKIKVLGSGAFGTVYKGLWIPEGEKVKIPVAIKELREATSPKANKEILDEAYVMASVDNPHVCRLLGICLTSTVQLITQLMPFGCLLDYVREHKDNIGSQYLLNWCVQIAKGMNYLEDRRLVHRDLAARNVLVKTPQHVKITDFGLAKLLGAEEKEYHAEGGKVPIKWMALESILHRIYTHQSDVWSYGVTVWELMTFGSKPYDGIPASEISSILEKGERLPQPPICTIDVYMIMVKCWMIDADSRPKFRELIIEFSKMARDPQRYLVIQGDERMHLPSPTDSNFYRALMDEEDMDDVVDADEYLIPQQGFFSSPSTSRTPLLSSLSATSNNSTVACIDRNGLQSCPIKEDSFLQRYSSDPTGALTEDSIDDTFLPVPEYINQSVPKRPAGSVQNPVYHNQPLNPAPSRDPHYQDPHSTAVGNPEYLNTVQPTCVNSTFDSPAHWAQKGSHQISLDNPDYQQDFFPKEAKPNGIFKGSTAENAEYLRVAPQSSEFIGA

On to `O=C(C#CCN1CCOCC1)Nc1ccc2ncnc(Nc3cccc(Br)c3)c2c1` [Example 19, 4-Morpholin-4-yl-but-2-ynoic acid [4-(3-bromo-phenylamino)-quinazolin-6-yl]-amide], for which the IC50 worked out at 50 nM in assay [1]; 3.32 µg/mL (≈ 7.12 µM) in assay [2]; 4.37 µg/mL (≈ 9.37 µM) in assay [3]; 0.02 µg/mL (≈ 0.0429 µM) in assay [4]; 3.55 µg/mL (≈ 7.61 µM) in assay [5]; 5.95 µg/mL (≈ 12.8 µM) in [6]. In addition, the values for the 50% inhibitory concentration (IC50) in assay [7], in assay [8] and in assay [9] were 6.36 µg/mL (≈ 13.6 µM), 0.003 µg/mL (≈ 0.00643 µM) and 1.1 µg/mL (≈ 2.36 µM), respectively.
On to `COCC#CC(=O)Nc1ccc2ncnc(Nc3cccc(Br)c3)c2c1` [Example 23, 4-Methoxy-but-2-ynoic acid [4-(3-bromo-phenylamino)-quinazolin-6-yl]-amide], for which the half-maximal inhibitory concentration (IC50) came to 0.31 nM in [1] (setting [10]); 0.06 µg/mL (≈ 0.146 µM) in [2]; 0.12 µg/mL (≈ 0.292 µM) in assay [3]; 0.05 µg/mL (≈ 0.122 µM) in assay [4]; 0.02 µg/mL (≈ 0.0486 µM) in assay [5]; 0.8 µg/mL (≈ 1.95 µM) in assay [6]. The half-inhibitory concentration (IC50) turned out to be 0.5 µg/mL (≈ 1.22 µM) in [7], 0.06 µg/mL (≈ 0.146 µM) in assay [8] and 0.06 µg/mL (≈ 0.146 µM) in assay [9].
`CCN1CCN(CC#CC(=O)Nc2ccc3ncnc(Nc4cccc(Br)c4)c3c2)CC1` [Example 28, 4-(4-Ethyl-piperazin-1-yl)-but-2-ynoic acid [4-(3-bromophenylamino)-quinazolin-6-yl]-amide]: the half-maximal inhibitory concentration (IC50) was determined as 5.5 nM in assay [1]; 0.56 µg/mL (≈ 1.13 µM) in [2]; 0.84 µg/mL (≈ 1.7 µM) in assay [3]; 0.6 µg/mL (≈ 1.22 µM) in assay [4]; 1.94 µg/mL (≈ 3.93 µM) in [5]; 1.61 µg/mL (≈ 3.26 µM) in [6]. The IC50 in [7] is 3.09 µg/mL (≈ 6.26 µM); in assay [8] it was 0.1 µg/mL (≈ 0.203 µM); in assay [9], 2.38 µg/mL (≈ 4.82 µM).
Consider `CCOc1c(Nc2ccc3ncnc(Nc4cccc(Br)c4)c3c2)c(=O)c1=O` [Example 48, 3-[4-(3-Bromo-phenylamino)-quinazolin-6-ylamino]-4-ethoxy-cyclobut-3-ene-1,2-dione], for which the IC50 turned out to be 2 nM in assay [1] (setting [10]); 3.71 µg/mL (≈ 8.45 µM) in [2]; 4.74 µg/mL (≈ 10.8 µM) in [3]; 3.11 µg/mL (≈ 7.08 µM) in assay [4]; 3.55 µg/mL (≈ 8.08 µM) in assay [5]; 5.48 µg/mL (≈ 12.5 µM) in [6]. Also, the half-inhibitory concentration (IC50) in assay [7] came to 5.42 µg/mL (≈ 12.3 µM); in [8] it was 3.79 µg/mL (≈ 8.63 µM); in assay [9], 2.81 µg/mL (≈ 6.4 µM).
Consider `CN(C)c1c(Nc2ccc3ncnc(Nc4cccc(Br)c4)c3c2)c(=O)c1=O` [Example 49, 3-[4-(3-Bromo-phenylamino)-quinazolin-6-ylamino]-4-dimethylamino-cyclobut-3-ene-1,2-dione], for which the IC50 in assay [1] (setting [10]) is 100 nM; in [2], 3.16 µg/mL (≈ 7.21 µM); in assay [3], 4.81 µg/mL (≈ 11 µM); in assay [4], 2.83 µg/mL (≈ 6.46 µM); in assay [5], 3.48 µg/mL (≈ 7.94 µM); in assay [6], 5.2 µg/mL (≈ 11.9 µM). Besides, the figures for the IC50 in [7], in assay [8] and in [9] were 6.72 µg/mL (≈ 15.3 µM), 3.57 µg/mL (≈ 8.15 µM) and 3.61 µg/mL (≈ 8.24 µM), respectively.
Regarding `CNc1c(Nc2ccc3ncnc(Nc4cccc(Br)c4)c3c2)c(=O)c1=O` [Example 50, 3-[4-(3-Bromo-phenylamino)-quinazolin-6-ylamino]-4-methylamino-cyclobut-3-ene-1,2-dione], the IC50 was 0.4 nM in assay [1] (setting [10]); more than 100 µg/mL in assay [2]; more than 100 µg/mL in [3]; more than 100 µg/mL in [4]; more than 100 µg/mL in assay [5]; more than 100 µg/mL in [6]. Moreover, the IC50 in assay [7], in assay [8] and in assay [9] was more than 100 µg/mL each time.
On to `Nc1c(Nc2ccc3ncnc(Nc4cccc(Br)c4)c3c2)c(=O)c1=O` [Example 51, 3-Amino-4-[4-(3-bromo-phenylamino)-quinazolin-6-ylamino]-cyclobut-3-ene-1,2-dione], for which the IC50 in assay [1] (setting [10]) was 7 nM; in [2], 6.92 µg/mL (≈ 16.9 µM); in [3] it was 56.9 µg/mL (≈ 139 µM); in [4], 6.84 µg/mL (≈ 16.7 µM); in assay [5], 56.5 µg/mL (≈ 138 µM); in [6] it was more than 100 µg/mL. Moreover, the IC50 in [7] was more than 100 µg/mL; in assay [8], 6.21 µg/mL (≈ 15.1 µM); in [9] it was more than 100 µg/mL.
